Data: ChEMBL document CHEMBL1138818, “Design and synthesis of cyclic urea compounds: a pharmacological study for retinoidal activity” (2004)
Calls of active or inactive are those of the source. The calls are words filed in the database; no cut-off is given here.

How the values were obtained:
[1] = system: HL-60; experiment: Effective concentration required for induction of differentiation of HL-60 cells into mature granulocytes.; type: functional; conditions: Homo sapiens, read-out: ED50 (the source's name)
[2] = system: HL-60; experiment: Effective concentration required for induction of differentiation of HL-60 cells into mature granulocytes.( >10e-6= slight activity at 10e-6); type: functional; conditions: Homo sapiens, read-out: ED50 (the source's name)
[3] = system: HL-60; experiment: Effective concentration required for induction of differentiation of HL-60 cells into mature granulocytes. IA = No activity at E-6; type: functional, cell-based; conditions: Homo sapiens

| Structure (SMILES) | EC50 [1] | ED50 [3] | other results |
| --- | --- | --- | --- |
| CC1(C)CCC(C)(C)c2cc(NC(=O)Nc3ccc(C(=O)O)cc3)ccc21 | – | – | EC50 [2]: > 10000 nM |
| CC1(C)CCC(C)(C)c2cc(N3CCCN(c4ccc(C(=O)O)cc4)C3=O)ccc21 | – | inactive | – |
| CC(C)(C)c1ccc(N2CCN(c3ccc(C(=O)O)cc3)C2=O)cc1 | – | inactive | – |
| O=C(O)c1ccc(N2CCN(c3ccccc3)C2=O)cc1 | – | inactive | – |
| CC(C)(C)c1ccc(N2CCCN(c3ccc(C(=O)O)cc3)C2=O)cc1 | – | inactive | – |
| O=C(O)c1ccc(N2CCCN(c3ccccc3)C2=O)cc1 | – | inactive | – |

Now from value to compound, other results behind:

| EC50 [1] | Structure (SMILES) | ED50 [3] | other results |
| --- | --- | --- | --- |
| 8.3 nM | CC(C)(C)c1cc(N2CCN(c3ccc(C(=O)O)cc3)C2=O)cc(C(C)(C)C)c1 | – | – |
| 120 nM | CC1(C)CCC(C)(C)c2cc(N3CCN(c4ccc(C(=O)O)cc4)C3=O)ccc21 | – | – |
| 490 nM | CC(C)(C)c1cc(N2CCCN(c3ccc(C(=O)O)cc3)C2=O)cc(C(C)(C)C)c1 | – | – |
| 2.4 nM | CC1=C(/C=C/C(C)=C/C=C/C(C)=C/C(=O)O)C(C)(C)CCC1 [TRETINOIN] | – | – |
| 0.8 nM | CC1(C)CCC(C)(C)c2cc(NC(=O)c3ccc(C(=O)O)cc3)ccc21 [TAMIBAROTENE] | – | – |
